We go through two molecules from patent US12077503B2, “Substituted cyclic amides and their use as herbicides” (FMC CORPORATION, priority 2015, dated 2024).

Holding throughout (format): in vivo
Experiment [1] has as its system Kochia (Kochia scoparia). In words: Test A preemergence. Conditions: Bassia scoparia, pre-emergence, 240 h; for pest or weed control at 125 g/ha: 125 g ai/ha, preemergence, 0 to 100 scale where 0 is no effect and 100 is complete control, read-out: Kochia plant response rating; for pest or weed control at 500 g/ha: 500 g ai/ha, Preemergence, visual injury vs untreated controls after approximately 10 d, read-out: Kochia plant response rating (0 to 100 scale where 0 is no effect and 100 is complete control). A digest of the protocol:
(§1)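 Preemergence soil spray on seeded pots or post-emergence spray on 1–2 leaf plants, in loam–sand blend. Greenhouse ~10 d. Visual rating 0–100 against untreated plants.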

The test system of experiment [2] is barnyardgrass (Echinochloa crus-galli). Kind of experiment: Test A preemergence. Conditions: Echinochloa crus-galli, pre-emergence, 240 h; for pest or weed control at 125 g/ha: 125 g ai/ha, preemergence, 0 to 100 scale where 0 is no effect and 100 is complete control, read-out: Barnyardgrass plant response rating; for pest or weed control at 500 g/ha: 500 g ai/ha, Preemergence, visual injury vs untreated controls after approximately 10 d, read-out: Barnyardgrass plant response rating (0 to 100 scale where 0 is no effect and 100 is complete control). Put shortly: as §1

For experiment [3], the system named is giant foxtail (Setaria faberii). In words: Test A preemergence. Conditions: Setaria faberi, pre-emergence, 240 h; for pest or weed control at 125 g/ha: 125 g ai/ha, preemergence, 0 to 100 scale where 0 is no effect and 100 is complete control, read-out: Foxtail, Giant plant response rating; for pest or weed control at 500 g/ha: 500 g ai/ha, Preemergence, visual injury vs untreated controls after approximately 10 d, read-out: Foxtail, Giant plant response rating (0 to 100 scale where 0 is no effect and 100 is complete control). Put shortly:
as §1

The test system of experiment [4] is pigweed (Amaranthus retroflexus). Kind of experiment: Test A preemergence. Conditions: Amaranthus retroflexus, pre-emergence, 240 h; for pest or weed control at 125 g/ha: 125 g ai/ha, preemergence, 0 to 100 scale where 0 is no effect and 100 is complete control, read-out: Pigweed plant response rating; for pest or weed control at 500 g/ha: 500 g ai/ha, Preemergence, visual injury vs untreated controls after approximately 10 d, read-out: Pigweed plant response rating (0 to 100 scale where 0 is no effect and 100 is complete control).

Experiment [5] concerns ragweed (common ragweed, Ambrosia elatior). In words: Test A preemergence. Conditions: Ambrosia artemisiifolia, pre-emergence, 240 h; for pest or weed control at 125 g/ha: 125 g ai/ha, preemergence, 0 to 100 scale where 0 is no effect and 100 is complete control, read-out: Ragweed plant response rating; for pest or weed control at 500 g/ha: 500 g ai/ha, Preemergence, visual injury vs untreated controls after approximately 10 d, read-out: Ragweed plant response rating (0 to 100 scale where 0 is no effect and 100 is complete control). Put shortly: as §1

For experiment [6], the system named is ryegrass, Italian (Italian ryegrass, Lolium multiflorum). In words: Test A preemergence. Conditions: Lolium multiflorum, pre-emergence, 240 h; for pest or weed control at 125 g/ha: 125 g ai/ha, preemergence, 0 to 100 scale where 0 is no effect and 100 is complete control, read-out: Ryegrass, Italian plant response rating; for pest or weed control at 500 g/ha: 500 g ai/ha, Preemergence, visual injury vs untreated controls after approximately 10 d, read-out: Ryegrass, Italian plant response rating (0 to 100 scale where 0 is no effect and 100 is complete control). A digest of the protocol:
as §1

The subject of experiment [7] is Galium (catchweed bedstraw, Galium aparine). Kind of experiment: Test A postemergence. Conditions: Galium, post-emergence, 240 h, 125 g ai/ha, postemergence, visual injury rating after approximately 10 d; read-out: Galium plant response rating (0 to 100 scale, 0 no effect, 100 complete control). Put shortly:
as §1

The subject of experiment [8] is barnyardgrass (Echinochloa crus-galli). Kind of experiment: Test A postemergence. Conditions: Echinochloa crus-galli, post-emergence, 240 h, 125 g ai/ha, postemergence, visual injury rating after approximately 10 d; read-out: Barnyardgrass plant response rating (0 to 100 scale, 0 no effect, 100 complete control). A digest of the protocol: as §1
Experiment [9] concerns corn (Zea mays). Kind of experiment: Test A postemergence. Conditions: Zea mays, post-emergence, 240 h, 125 g ai/ha, postemergence, visual injury rating after approximately 10 d; read-out: Corn plant response rating (0 to 100 scale, 0 no effect, 100 complete control). Put shortly:
as §1

For experiment [10], the system named is ragweed (common ragweed, Ambrosia elatior). Kind of experiment: Test A postemergence. Conditions: Ambrosia artemisiifolia, post-emergence, 240 h, 125 g ai/ha, postemergence, visual injury rating after approximately 10 d; read-out: Ragweed plant response rating (0 to 100 scale, 0 no effect, 100 complete control). Put shortly:
as §1

The subject of experiment [11] is barnyardgrass (Echinochloa crus-galli). Kind of experiment: Test B flooded paddy test. Conditions: Echinochloa crus-galli, Flood, 250 g ai/ha; scale of 0 to 100 where 0 is no effect and 100 is complete control; read-out: Barnyardgrass plant response rating. Put shortly: (§2)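 Rating scale 0–100 (visual, vs untreated controls) after a 13–15 d greenhouse period; application to the flood layer, 3 cm above soil and maintained; plants at 2-leaf stage when treated.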

In experiment [12] the test system is ducksalad (Heteranthera limosa). In words: Test B flooded paddy test. Conditions: Heteranthera limosa, Flood, 250 g ai/ha; scale of 0 to 100 where 0 is no effect and 100 is complete control; read-out: Ducksalad plant response rating. A digest of the protocol: as §2
The subject of experiment [13] is rice (Oryra sativa). Kind of experiment: Test B flooded paddy test. Conditions: Oryza sativa, Flood, 250 g ai/ha; scale of 0 to 100 where 0 is no effect and 100 is complete control; read-out: Rice plant response rating. Put shortly: as §2
For experiment [14], the system named is sedge, umbrella (small-flower umbrella sedge, Cyperus difformis). Kind of experiment: Test B flooded paddy test. Conditions: Cyperus difformis, Flood, 250 g ai/ha; scale of 0 to 100 where 0 is no effect and 100 is complete control; read-out: Sedge, Umbrella plant response rating. A digest of the protocol: as §2

Turning to `CN1C[C@H](c2cc(F)cc(F)c2)[C@@H](C(=O)Nc2ccc(C(F)(F)F)cn2)C1=O` [Compound 869], the pest or weed control at 125 g/ha in [1] turned out to be 0%; in experiment [2] it was 60%; in experiment [3], 90%; in [4] it was 0%; in [5], 0%; in experiment [6], 0%. Besides, the values for the pest or weed control at 125 g/ha in experiment [7], in [8] and in experiment [10] were 0%, 80% and 0%, respectively. Also, the pest or weed control at 500 g/ha in experiment [1] turned out to be 0%; in experiment [2], 90%; in experiment [3], 90%; in experiment [4], 0%; in experiment [5], 0%; in [6], 0%. Also, the plant injury at 125 g/ha in experiment [9] was determined as 0%. Moreover, the pest or weed control at 250 g/ha turned out to be 0% in experiment [11], 60% in [12], 0% in experiment [13] and 0% in experiment [14].

Consider `COc1c(F)ccc([C@H]2CNC(=O)[C@@H]2C(=O)Nc2ccc(F)cc2F)c1Cl` [Compound 883], for which the pest or weed control at 125 g/ha worked out at 30% in experiment [1]; 90% in [2]; 60% in experiment [3]; 0% in [4]; 0% in [5]; 0% in experiment [6]. For the same molecule, the pest or weed control at 125 g/ha worked out at 0% in experiment [7], 90% in experiment [8] and 0% in [10]. The pest or weed control at 500 g/ha in experiment [1] amounted to 60%; in experiment [2] it was 90%; in experiment [3], 90%; in [4] it was 0%; in experiment [5] it was 0%; in experiment [6] it was 20%. In addition, in experiment [9], the plant injury at 125 g/ha was 0%. In addition, the pest or weed control at 250 g/ha in [11] came out at 0%; in [12], 80%; in experiment [13], 20%; in experiment [14] it was 0%.
